Results: patent US20240116951A1, “HETEROCYCLIC COMPOUNDS AND USES THEREOF” (Kumquat Biosciences Inc., priority 2022, published 2024)

Assays:
Type in all cases: binding
KRAS G12S = biological target: T1, KRAS G12S (Homo sapiens, UniProt P01116, G12S); experiment: HTRF assay of K-Ras G12S interaction with SOS1 (PPI-HTRF); details: 5 nM KRAS G12S, read-out: PPI-HTRF-5 nM KRAS G12S
T1 construct: made in house; host or cells: E. coli, e.g. BL21 (DE3)
Summary of the method: (§1)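 Compounds tested in duplicate from 10 μM to 0.01 μM; 665/620 nm emission ratio used to derive IC50. Proximity FRET between anti-GST-Eu on GST-K-Ras (wildtype or mutant) and anti-6His-XL665 on His-hSOS1 measured after ≥10 min in pH 7.4 HEPES/NaCl/DTT/BSA/Igepal buffer.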

KRAS G12D = biological target: T2, KRAS G12D (Homo sapiens, UniProt P01116, G12D); experiment: HTRF assay of K-Ras G12D interaction with SOS1 (PPI-HTRF); details: HTRF, 5 nM KRAS G12D; read-out: PPI-HTRF-5 nM KRAS G12D
T2 construct: made in house; host or cells: E. coli, e.g. BL21 (DE3)
T2 sequence (P01116 1-188 isoform P01116-2 G12D): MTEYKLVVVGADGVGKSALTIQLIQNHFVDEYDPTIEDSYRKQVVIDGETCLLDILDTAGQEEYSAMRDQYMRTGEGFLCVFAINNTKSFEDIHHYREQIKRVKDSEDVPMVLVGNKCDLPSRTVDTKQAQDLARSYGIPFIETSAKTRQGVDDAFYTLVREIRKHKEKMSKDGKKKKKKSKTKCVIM
Summary of the method: as §1

KRAS WT = biological target: T3, KRAS WT (Homo sapiens, UniProt P01116); experiment: HTRF assay of wildtype K-Ras interaction with SOS1 (PPI-HTRF); details: HTRF, 5 nM KRAS WT; read-out: PPI-HTRF-5 nM KRAS WT
T3 construct: made in house; host or cells: E. coli, e.g. BL21 (DE3)
T3 sequence (P01116 1-188 isoform P01116-2): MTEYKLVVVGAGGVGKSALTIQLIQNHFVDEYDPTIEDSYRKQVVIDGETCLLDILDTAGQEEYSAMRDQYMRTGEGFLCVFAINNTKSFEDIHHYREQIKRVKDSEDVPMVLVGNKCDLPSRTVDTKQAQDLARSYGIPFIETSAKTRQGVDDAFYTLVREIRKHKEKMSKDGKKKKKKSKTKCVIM
Summary of the method: as §1

T1 sequence (P01116 1-188 isoform P01116-2 G12S): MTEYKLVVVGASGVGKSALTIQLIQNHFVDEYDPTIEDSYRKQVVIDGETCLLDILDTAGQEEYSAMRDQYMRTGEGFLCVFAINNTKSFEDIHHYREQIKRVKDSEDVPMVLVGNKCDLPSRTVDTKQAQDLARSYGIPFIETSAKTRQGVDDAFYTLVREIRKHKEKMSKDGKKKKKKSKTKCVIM

Structure (SMILES) | IC50 (KRAS G12S) | IC50 (KRAS G12D) | IC50 (KRAS WT)
C[C@H](Oc1nc(N2CC[C@@]3(CCN3C(=O)n3cncn3)C2)c2cc(Cl)c(-c3ccc(F)c4sc(N)c(C#N)c34)c(F)c2n1)[C@@H]1CCCN1C (single isomer, unassigned) [Compound 299] | < 5 µM | < 5 µM | < 5 µM
C#Cc1c(F)ccc2cc(O)cc(-c3ncc4c(N5CCC6(CCN6)C5)nc(O[C@@H](C)[C@@H]5CCCN5C)nc4c3F)c12 (stereo partly drawn) [Compound 239, 5-ethynyl-6-fluoro-4-(8-fluoro-2-((S)-1-((S)-1-methylpyrrolidin-2-yl)ethoxy)-4-(1,6-diazaspiro[3.4]octan-6-yl)pyrido[4,3-d]pyrimidin-7-yl)naphthalen-2-ol] | < 5 µM | > 5 µM | < 5 µM
N#Cc1c(N)sc2c(F)ccc(-c3c(Cl)cc4c(N5CC6(CCN6C(=O)C6CC6(F)F)C5)nc(OC[C@@]56CCCN5C[C@H](F)C6)nc4c3F)c12 (stereo partly drawn) [Compound 340, 2-amino-4-(6-chloro-4-(1-(2,2-difluorocyclopropane-1-carbonyl)-1,6-diazaspiro[3.3]heptan-6-yl)-8-fluoro-2-(((2R,7aS)-2-fluorotetrahydro-1H-pyrrolizin-7a(5H)-yl)methoxy)quinazolin-7-yl)-7-fluorobenzo[b]thiophene-3-carbonitrile] | < 5 µM | < 5 µM | < 5 µM
N#Cc1c(N)sc2c(F)ccc(-c3c(Cl)cc4c(N5CCC6(CCN6C(=O)n6cccc6C#N)C5)nc(OC[C@@]56CCCN5C[C@H](F)C6)nc4c3F)c12 (stereo partly drawn) [Compound 289, 1-(6-(7-(2-amino-3-cyano-7-fluorobenzo[b]thiophen-4-yl)-6-chloro-8-fluoro-2-(((2R,7aS)-2-fluorotetrahydro-1H-pyrrolizin-7a(5H)-yl)methoxy)quinazolin-4-yl)-1,6-diazaspiro[3.4]octane-1-carbonyl)-1H-pyrrole-2-carbonitrile] | < 5 µM | < 5 µM | < 5 µM
C[C@H]1CN[C@]12CCN(c1nc(OC[C@@]34CCCN3C[C@H](F)C4)nc3c(F)c(-c4ccc(F)c5sc(N)c(C#N)c45)c(Cl)cc13)C2 [Compound 334, 2-amino-4-(6-chloro-8-fluoro-2-(((2R,7aS)-2-fluorotetrahydro-1H-pyrrolizin-7a(5H)-yl)methoxy)-4-((3S,4R)-3-methyl-1,6-diazaspiro[3.4]octan-6-yl)quinazolin-7-yl)-7-fluorobenzo[b]thiophene-3-carbonitrile] | < 5 µM | < 5 µM | < 5 µM
C[C@H]1CN(C(=O)n2cncn2)[C@]12CCN(c1nc(OC[C@@]34CCCN3C[C@H](F)C4)nc3c(F)c(-c4ccc(F)c5sc(N)c(C#N)c45)c(Cl)cc13)C2 [Compound 324, 2-amino-4-(6-chloro-8-fluoro-2-(((2R,7aS)-2-fluorotetrahydro-1H-pyrrolizin-7a(5H)-yl)methoxy)-4-((3S,4R)-3-methyl-1-(1H-1,2,4-triazole-1-carbonyl)-1,6-diazaspiro[3.4]octan-6-yl)quinazolin-7-yl)-7-fluorobenzo[b]thiophene-3-carbonitrile] | < 5 µM | < 5 µM | < 5 µM
C[C@H](Oc1nc(N2CCCC3(CCN3)C2)c2cc(Cl)c(-c3ccc(F)c4sc(N)c(C#N)c34)c(F)c2n1)[C@@H]1CCCN1C (stereo partly drawn) [Compound 210, 2-amino-4-(6-chloro-8-fluoro-2-((S)-1-((S)-1-methylpyrrolidin-2-yl)ethoxy)-4-(1,6-diazaspiro[3.5]nonan-6-yl)quinazolin-7-yl)-7-fluorobenzo[b]thiophene-3-carbonitrile] | < 5 µM | < 5 µM | < 5 µM
C[C@H]1CN(C(=O)n2cnc(Br)n2)[C@]12CCN(c1nc(OC[C@@]34CCCN3C[C@H](F)C4)nc3c(F)c(-c4ccc(F)c5sc(N)c(C#N)c45)c(Cl)cc13)C2 [Compound 224, 2-amino-4-(4-((3S,4R)-1-(3-bromo-1H-1,2,4-triazole-1-carbonyl)-3-methyl-1,6-diazaspiro[3.4]octan-6-yl)-6-chloro-8-fluoro-2-(((2R,7aS)-2-fluorotetrahydro-1H-pyrrolizin-7a(5H)-yl)methoxy)quinazolin-7-yl)-7-fluorobenzo[b]thiophene-3-carbonitrile] | < 5 µM | < 5 µM | < 5 µM
C[C@H](Oc1nc(N2CCC3(CCN3C(=O)c3ccnn3C)C2)c2cc(Cl)c(-c3ccc(F)c4sc(N)c(C#N)c34)c(F)c2n1)[C@@H]1CCCN1C (stereo partly drawn) [Compound 274, 2-amino-4-(6-chloro-8-fluoro-4-(1-(1-methyl-1H-pyrazole-5-carbonyl)-1,6-diazaspiro[3.4]octan-6-yl)-2-((S)-1-((S)-1-methylpyrrolidin-2-yl)ethoxy)quinazolin-7-yl)-7-fluorobenzo[b]thiophene-3-carbonitrile] | < 5 µM | < 5 µM | < 5 µM
Nc1nc2c(-c3c(Cl)cc4c(N5CCCC6(CCN6)CC5)nc(OC[C@@]56CCCN5C[C@H](F)C6)nc4c3F)ccc(F)c2s1 (stereo partly drawn) [Compound 276, 4-(6-chloro-8-fluoro-2-(((2R,7aS)-2-fluorotetrahydro-1H-pyrrolizin-7a(5H)-yl)methoxy)-4-(1,7-diazaspiro[3.6]decan-7-yl)quinazolin-7-yl)-7-fluorobenzo[d]thiazol-2-amine] | < 5 µM | < 5 µM | < 5 µM
N#Cc1c(N)sc2c(F)ccc(-c3c(Cl)cc4c(N5CCC6(C5)N(C(=O)C5CC5(F)F)CC6(F)F)nc(OC[C@@]56CCCN5C[C@H](F)C6)nc4c3F)c12 (stereo partly drawn) [Compound 228, 2-amino-4-(6-chloro-4-(1-(2,2-difluorocyclopropane-1-carbonyl)-3,3-difluoro-1,6-diazaspiro[3.4]octan-6-yl)-8-fluoro-2-(((2R,7aS)-2-fluorotetrahydro-1H-pyrrolizin-7a(5H)-yl)methoxy)quinazolin-7-yl)-7-fluorobenzo[b]thiophene-3-carbonitrile] | < 5 µM | < 5 µM | < 5 µM

Second part, the compound after the results:

IC50 (KRAS G12S) | IC50 (KRAS G12D) | IC50 (KRAS WT) | Structure (SMILES)
< 5 µM | < 5 µM | < 5 µM | N#Cc1c(N)sc2c(F)ccc(-c3c(Cl)cc4c(N5CCC6(CCN6C(=O)n6cnc(Cl)n6)C5)nc(OC[C@@]56CCCN5C[C@H](F)C6)nc4c3F)c12 (stereo partly drawn) [Compound 312, 2-amino-4-(6-chloro-4-(1-(3-chloro-1H-1,2,4-triazole-1-carbonyl)-1,6-diazaspiro[3.4]octan-6-yl)-8-fluoro-2-(((2R,7aS)-2-fluorotetrahydro-1H-pyrrolizin-7a(5H)-yl)methoxy)quinazolin-7-yl)-7-fluorobenzo[b]thiophene-3-carbonitrile]
< 5 µM | < 5 µM | < 5 µM | N#Cc1c(N)sc2c(F)ccc(-c3c(Cl)cc4c(N5CCC6(CCN6C(=O)n6nccn6)C5)nc(OC[C@@]56CCCN5C[C@H](F)C6)nc4c3F)c12 (stereo partly drawn) [Compound 300, 4-(4-(1-(2H-1,2,3-triazole-2-carbonyl)-1,6-diazaspiro[3.4]octan-6-yl)-6-chloro-8-fluoro-2-(((2R,7aS)-2-fluorotetrahydro-1H-pyrrolizin-7a(5H)-yl)methoxy)quinazolin-7-yl)-2-amino-7-fluorobenzo[b]thiophene-3-carbonitrile]
< 5 µM | < 5 µM | < 5 µM | Cc1nc(C)n(C(=O)N2CC[C@]23CCN(c2nc(OC[C@@]45CCCN4C[C@H](F)C5)nc4c(F)c(-c5ccc(F)c6sc(N)c(C#N)c56)c(Cl)cc24)C3)n1 [Compound 306, 2-amino-4-(6-chloro-4-((S)-1-(3,5-dimethyl-1H-1,2,4-triazole-1-carbonyl)-1,6-diazaspiro[3.4]octan-6-yl)-8-fluoro-2-(((2R,7aS)-2-fluorotetrahydro-1H-pyrrolizin-7a(5H)-yl)methoxy)quinazolin-7-yl)-7-fluorobenzo[b]thiophene-3-carbonitrile]
< 5 µM | < 5 µM | < 5 µM | N#CCC1CN(c2nc(OC[C@@]34CCCN3C[C@H](F)C4)nc3c(F)c(-c4ccc(F)c5sc(N)c(C#N)c45)c(Cl)cc23)CC12CCN2C(=O)n1cnc(Cl)n1 (stereo partly drawn) [Compound 328, 2-amino-4-(6-chloro-4-(1-(3-chloro-1H-1,2,4-triazole-1-carbonyl)-8-(cyanomethyl)-1,6-diazaspiro[3.4]octan-6-yl)-8-fluoro-2-(((2R,7aS)-2-fluorotetrahydro-1H-pyrrolizin-7a(5H)-yl)methoxy)quinazolin-7-yl)-7-fluorobenzo[b]thiophene-3-carbonitrile]
< 5 µM | < 5 µM | < 5 µM | Cc1nc(C)n(C(=O)N2CC[C@@]23CCN(c2nc(OC[C@@]45CCCN4C[C@H](F)C5)nc4c(F)c(-c5ccc(F)c6sc(N)c(C#N)c56)c(Cl)cc24)C3)n1 [Compound 307, 2-amino-4-(6-chloro-4-((R)-1-(3,5-dimethyl-1H-1,2,4-triazole-1-carbonyl)-1,6-diazaspiro[3.4]octan-6-yl)-8-fluoro-2-(((2R,7aS)-2-fluorotetrahydro-1H-pyrrolizin-7a(5H)-yl)methoxy)quinazolin-7-yl)-7-fluorobenzo[b]thiophene-3-carbonitrile]
< 5 µM | < 5 µM | < 5 µM | N#Cc1c(N)sc2c(F)ccc(-c3c(Cl)cc4c(N5CCC6(CCN6C(=O)n6cc(C(F)(F)F)nn6)C5)nc(OC[C@@]56CCCN5C[C@H](F)C6)nc4c3F)c12 (stereo partly drawn) [Compound 318, 2-amino-4-(6-chloro-8-fluoro-2-(((2R,7aS)-2-fluorotetrahydro-1H-pyrrolizin-7a(5H)-yl)methoxy)-4-(1-(4-(trifluoromethyl)-1H-1,2,3-triazole-1-carbonyl)-1,6-diazaspiro[3.4]octan-6-yl)quinazolin-7-yl)-7-fluorobenzo[b]thiophene-3-carbonitrile]
